{"source": "patent US7507817B2", "about": "“Prostaglandin prodrugs” (Allergan, Inc., priority 2006, dated 2009)", "assay_type_in_all_cases": "in vivo", "key": {"[1]": {"system": "normotensive dogs", "test": "Intraocular pressure (IOP) decrease in normotensive dogs", "conditions": "once daily for 5 days", "experimental": "(§1) (Z)-7-[(1R,2S,3R,5R)-5-Chloro-2-(3,5-dichloro-phenoxymethyl)-3-hydroxy-cyclopentyl]-hept-5-enoic acid 2-hydroxy-ethyl ester (1) was tested in normotensive dogs at 0.1%, dosing once daily for 5 days. The maximum intraocular pressure (IOP) decrease from baseline was 6.6 mmHg (40%) at 78 h; the maximum ocular surface hyperemia (OSH) score was 0.9 at 50 h. This compound was also tested in laser-induced hypertensive monkeys, using one single day dose. At 0.1%, the maximum IOP decrease from baseline was 12.5 mmHg (33%) at […]\n(§2) (Z)-7-[(1R,2S,3R,5R)-5-Chloro-2-(3,5-dichloro-phenoxymethyl)-3-hydroxy-cyclopentyl]-hept-5-enoic acid 2-morpholin-4-yl-ethyl ester (2) was tested in normotensive dogs at 0.1%, dosing once daily for 5 days. The maximum intraocular pressure (IOP) decrease from baseline was 5.1 mmHg (34%) at 78 h; the maximum ocular surface hyperemia (OSH) score was 0.9 at 30 h. This compound was also tested in laser-induced hypertensive monkeys, using one single day dose. At 0.1%, the maximum IOP decrease from baseline was 11.9 mmHg (32%) at 6 h.\n(§3) (Z)-7-[(1R,2S,3R,5R)-5-Chloro-2-(3,5-dichloro-phenoxymethyl)-3-hydroxy-cyclopentyl]-hept-5-enoic acid was tested at multiple concentrations in normotensive dogs, dosing once daily for 5 days. At 0.05%, the maximum IOP decrease from baseline was 4.3 mmHg (30%) at 6 h; the maximum OSH score was 0.6 at 6 h. At 0.1%, the maximum IOP decrease from baseline was 4.8 mmHg (34%) at 102 h; the maximum OSH score was 1.3 at 6 h. This compound was also tested in laser-induced hypertensive monkeys, using one single day dose. At 0.1%, the maximum IOP decrease from baseline was 6 mmHg (19%) at 6 h.\n(§4) (Z)-7-[(1R,2S,3R,5R)-5-Chloro-2-(3,5-dichloro-phenoxymethyl)-3-hydroxy-cyclopentyl]-hept-5-enoic acid isopropyl ester was tested at multiple concentrations in normotensive dogs, dosing once daily for 5 days. At 0.01%, the maximum intraocular pressure (IOP) decrease from baseline was 1.1 mmHg (7%) at 2 h; the maximum ocular surface hyperemia (OSH) score was 0.6 at 74 h. At 0.05%, the maximum intraocular pressure (IOP) decrease from baseline was 2.8 mmHg (18%) at 6 h; the maximum ocular surface hyperemia (OSH) score was 0.6 at 74 h. This compound was also tested in laser-induced hypertensive monkeys, using one single day dose. At 0.01%, the maximum IOP decrease from baseline was 6.8 mmHg (18%) at 6 h. At 0.05%, the maximum IOP decrease from baseline was 6 mmHg (16%) at 2 h."}, "[2]": {"system": "normotensive dogs", "test": "Ocular surface hyperemia (OSH) score in normotensive dogs", "conditions": "once daily for 5 days; for maximum OSH score: maximum at 6 h", "experimental": "as §1, §2, §3, §4"}, "[3]": {"system": "laser-induced hypertensive monkeys", "test": "IOP decrease in laser-induced hypertensive monkeys", "conditions": "one single day dose", "experimental": "as §1, §2, §3, §4"}}, "data": [{"compound": "CC(C)OC(=O)CCC/C=C\\C[C@@H]1[C@@H](COc2cc(Cl)cc(Cl)c2)[C@H](O)C[C@H]1Cl", "note": "[(Z)-7-[(1R,2S,3R,5R)-5-Chloro-2-(3,5-dichloro-phenoxymethyl)-3-hydroxy-cyclopentyl]-hept-5-enoic acid isopropyl ester]", "values": [{"measurement": "maximum intraocular pressure (IOP) decrease from baseline", "setting": "[1]; 0.01%, maximum at 2 h", "value": 1.1, "unit": "mmHg"}, {"measurement": "maximum intraocular pressure (IOP) decrease from baseline (percent)", "setting": "[1]; 0.01%, maximum at 2 h", "value": 7, "unit": "%"}, {"measurement": "maximum IOP decrease from baseline", "setting": "[1]; 0.05%, maximum at 6 h", "value": 2.8, "unit": "mmHg"}, {"measurement": "maximum IOP decrease from baseline (percent)", "setting": "[1]; 0.05%, maximum at 6 h", "value": 18, "unit": "%"}, {"measurement": "maximum ocular surface hyperemia (OSH) score", "setting": "[2]; 0.01%, maximum at 74 h", "value": 0.6}, {"measurement": "maximum ocular surface hyperemia (OSH) score", "setting": "[2]; 0.05%, maximum at 74 h", "value": 0.6}, {"measurement": "maximum IOP decrease from baseline", "setting": "[3]; 0.01%, maximum at 6 h", "value": 6.8, "unit": "mmHg"}, {"measurement": "maximum IOP decrease from baseline (percent)", "setting": "[3]; 0.01%, maximum at 6 h", "value": 18, "unit": "%"}, {"measurement": "maximum IOP decrease from baseline", "setting": "[3]; 0.05%, maximum at 2 h", "value": 6, "unit": "mmHg"}, {"measurement": "maximum IOP decrease from baseline (percent)", "setting": "[3]; 0.05%, maximum at 2 h", "value": 16, "unit": "%"}]}, {"compound": "O=C(O)CCC/C=C\\C[C@@H]1[C@@H](COc2cc(Cl)cc(Cl)c2)[C@H](O)C[C@H]1Cl", "note": "[(Z)-7-[(1R,2S,3R,5R)-5-Chloro-2-(3,5-dichloro-phenoxymethyl)-3-hydroxy-cyclopentyl]-hept-5-enoic acid]", "values": [{"measurement": "maximum IOP decrease from baseline", "setting": "[1]; 0.05%, maximum at 6 h", "value": 4.3, "unit": "mmHg"}, {"measurement": "maximum IOP decrease from baseline (percent)", "setting": "[1]; 0.05%, maximum at 6 h", "value": 30, "unit": "%"}, {"measurement": "maximum IOP decrease from baseline", "setting": "[1]; 0.1%, maximum at 102 h", "value": 4.8, "unit": "mmHg"}, {"measurement": "maximum IOP decrease from baseline (percent)", "setting": "[1]; 0.1%, maximum at 102 h", "value": 34, "unit": "%"}, {"measurement": "maximum OSH score", "setting": "[2]; 0.05%", "value": 0.6}, {"measurement": "maximum OSH score", "setting": "[2]; 0.1%", "value": 1.3}, {"measurement": "maximum IOP decrease from baseline", "setting": "[3]; 0.1%, maximum at 6 h", "value": 6, "unit": "mmHg"}, {"measurement": "maximum IOP decrease from baseline (percent)", "setting": "[3]; 0.1%, maximum at 6 h", "value": 19, "unit": "%"}]}, {"compound": "O=C(CCC/C=C\\C[C@@H]1[C@@H](COc2cc(Cl)cc(Cl)c2)[C@H](O)C[C@H]1Cl)OCCO", "note": "[Compound 1, (Z)-7-[(1R,2S,3R,5R)-5-Chloro-2-(3,5-dichloro-phenoxymethyl)-3-hydroxy-cyclopentyl]-hept-5-enoic acid 2-hydroxy-ethyl ester]", "values": [{"measurement": "maximum intraocular pressure (IOP) decrease from baseline", "setting": "[1]; 0.1%, maximum at 78 h", "value": 6.6, "unit": "mmHg"}, {"measurement": "maximum intraocular pressure (IOP) decrease from baseline (percent)", "setting": "[1]; 0.1%, maximum at 78 h", "value": 40, "unit": "%"}, {"measurement": "maximum ocular surface hyperemia (OSH) score", "setting": "[2]; 0.1%, maximum at 50 h", "value": 0.9}, {"measurement": "maximum IOP decrease from baseline", "setting": "[3]; 0.1%, maximum at 4", "value": 12.5, "unit": "mmHg"}, {"measurement": "maximum IOP decrease from baseline (percent)", "setting": "[3]; 0.1%, maximum at 4", "value": 33, "unit": "%"}]}, {"compound": "O=C(CCC/C=C\\C[C@@H]1[C@@H](COc2cc(Cl)cc(Cl)c2)[C@H](O)C[C@H]1Cl)OCCN1CCOCC1", "note": "[Compound 2, (Z)-7-[(1R,2S,3R,5R)-5-Chloro-2-(3,5-dichloro-phenoxymethyl)-3-hydroxy-cyclopentyl]-hept-5-enoic acid 2-morpholin-4-yl-ethyl ester]", "values": [{"measurement": "maximum intraocular pressure (IOP) decrease from baseline", "setting": "[1]; 0.1%, maximum at 78 h", "value": 5.1, "unit": "mmHg"}, {"measurement": "maximum intraocular pressure (IOP) decrease from baseline (percent)", "setting": "[1]; 0.1%, maximum at 78 h", "value": 34, "unit": "%"}, {"measurement": "maximum ocular surface hyperemia (OSH) score", "setting": "[2]; 0.1%, maximum at 30 h", "value": 0.9}, {"measurement": "maximum IOP decrease from baseline", "setting": "[3]; 0.1%, maximum at 6 h", "value": 11.9, "unit": "mmHg"}, {"measurement": "maximum IOP decrease from baseline (percent)", "setting": "[3]; 0.1%, maximum at 6 h", "value": 32, "unit": "%"}]}]}
